We go through six compounds from PMC13242297, “Drug response profile-based machine learning enables strategic cell line and compound selection for drug development” (Bioinformatics, 2026).

Holding throughout (assay type): cell-based
Series [1] concerns MCF7 cells. In words: Cell Titer-Glo 3D cell viability assay, 48 h, MCF7. The method, then: (§1) Cell Culture: Cell viability was assessed using the MCF7 and MCF10A cell lines. Cells were maintained in relevant media throughout the study, in an incubator set to 37°C and 5% CO2, with media changes every 2–3 days. […] Compound plate preparation: […] Plates were sealed and stored at −4°C prior to use. Viability Assay: […] Plates were incubated for 48 h in a humidified incubator set to 37°C and 5% CO2. […] Cat #G9682). Plates were centrifuged briefly and incubated protected from light for 30 min at 30°C. Luminescence signal was measured using a CLARIOstar Plus microplate reader (BMG Labtech). Data Analysis: Raw relative luminescence unit (RLU) data were de-randomised prior to background subtraction. Viability was determined as a percentage of vehicle control (DMSO only). % Viability = ((Sample RLU—Mean Positive Control) ÷ (Mean Negative Control—Mean Positive Control)) × 100.

For series [2], the system named is MCF10A cells. Briefly: Cell Titer-Glo 3D cell viability assay, 48 h, MCF10A. As to the method: as §1
In general terms: ATP-based viability assays read luminescence as a measure of living cells.

Experiment in series [3]: as above
The note with it: human, MCF10A cells, MCF10A, 48 h, % of vehicle control. As to the method: as §1

Setting [4] is: Homo sapiens, MCF7; read-out: MCF7 IC50 Reached.
[5] abbreviates: Homo sapiens, MCF-10A; read-out: MCF10 IC50 Reached.
Where [6] appears, read: Homo sapiens, MCF-10A; MCF10A, 48 h viability; read-out: IC50.

Read-outs that look alike come from different tables or passages of the source.

The term IC50 denotes the point on the concentration scale where inhibition reaches its midpoint. As for `Cc1cc([C@@H](C)Nc2ccccc2C(=O)O)c2nc(N3CCOCC3)cc(=O)n2c1` [AZD 6482], the IC50 in series [1] (setting [4]) and in series [2] (setting [5]) was > 2.5 µM throughout. Moreover, the “IC50 (in words)” value in series [1] (MCF7, up to […]) was “did not reach IC50 values”; in series [2] (MCF10A, up to […]) it was “did not reach IC50 values”.

As usually defined, the viability is a per cent measure of how many cells are alive, often set against a control. Read a high viability as less harm to the cells. In the case of `CC[C@@H]1C(=O)N(C)c2cnc(Nc3ccc(C(=O)NC4CCN(C)CC4)cc3OC)nc2N1C1CCCC1` [BI 2536], the IC50 in series [1] (Homo sapiens, MCF7, 48 h) is < 0.1 µM; in series [1] (Homo sapiens, MCF7, read-out: MCF7 IC50 Reached), < 2.5 µM; in series [2] (Homo sapiens, MCF-10A, 48 h) it was ~1 µM; in series [2] (Homo sapiens, MCF-10A, read-out: MCF10 IC50 Reached), < 2.5 µM. For the same compound, the viability at 48 h, […] in series [3] (0.0025 uM) amounted to 92.4%; in series [3] (0.025 uM), 67.7%; in series [3] (0.25 uM), 72.3%; in series [3] (2.5 uM) it was 33.9%.

Regarding `Nc1ccn([C@@H]2O[C@H](CO)[C@@H](O)[C@@H]2O)c(=O)n1` [Cytarabine], the IC50 in series [1] (setting [4]) and in series [2] (setting [5]) was > 2.5 µM each time.

For the compound `Nc1ccn([C@@H]2O[C@H](CO)[C@@H](O)C2(F)F)c(=O)n1` [Gemcitabine], the figures for the IC50 in series [1] (setting [4]), in series [2] (setting [6]) and in series [2] (setting [5]) were > 2.5 µM, < 0.25 µM and < 2.5 µM, respectively.

With `Nc1nc2[nH]cc(CCc3ccc(C(=O)N[C@@H](CCC(=O)O)C(=O)O)cc3)c2c(=O)[nH]1` [Pemetrexed], the IC50 in series [1] (setting [4]) and in series [2] (setting [5]) was > 2.5 µM each time. Moreover, the “IC50 (in words)” value in series [1] (MCF7, up to […]) is recorded as “did not reach IC50 values”; in series [2] (MCF10A, up to […]), “did not reach IC50 values”.

As to `NS(=O)(=O)OC[C@@H]1C[C@@H](n2ccc3c(N[C@H]4CCc5ccccc54)ncnc32)C[C@@H]1O` [Pevonedistat], the IC50 in series [1] (setting [4]) was < 2.5 µM; in series [1] (Homo sapiens; MCF7, 48 h viability; read-out: IC50) it was < 0.1 µM; in series [2] (setting [6]) it was > 2.5 µM; in series [2] (setting [5]), > 2.5 µM.
